Assay results as given in patent US4284633A, “Derivatives of xanthine” (Boehringer Mannheim GmbH, priority 1979, dated 1981).

Tested on: antigen induced bronchospasm
Test: inhibition of antigen induced bronchospasm in passively sensitized guinea pigs
Format: in vivo, guinea pig
Details: 5 minutes before antigen, evaluated 3 minutes after antigen
Procedure: Specifically, tests were run as follows:
The antigen is twice recrystallized egg albumin.
The animals were bled and the pooled serum stored at -20° C.
Injections of 0.5 ml antiserum of 1:50 dilution were given i.v. 24-48 h before challenge.
Guinea pigs were anaesthetized with pentobarbital sodium (40 mg/kg i.p.). Cannulae were tied into the trachea and the jugular vein and the lung inflated with a pump at a rate of 72 strokes/min and a constant stroke volume of 6-8 ml.
Bronchospasm, provoked by injecting ovalbumin i.v. was measured as described by Konzett, H. and R. Rossler, "Versuchsanordnung und Untersuchungen an der Bronchialmuskulatur" Naunyn-Schmiedebergs, Arch. exp. Path. Pharmak.
The drugs were applied intravenously 5 minutes before the antigen.
For calculation the following formula was used: [formula] b=Bronchospasm after antigen injection, measured in mm from tracing m=maximum height of tracing in mm with arm of the treachea-cannula clamped
a=pre injection height of the tracing in mm

SMILES | % inhibition Br Sp (antigen induced bronchospasm) (0.38 mg/kg i.v.) [%] | % inhibition Br Sp (antigen induced bronchospasm) (0.1 mg/kg i.v.) [%] | other results
Cn1c(=O)c2c(ncn2CCCN2CCC(NC(=O)Cc3ccccc3)CC2)n(C)c1=O [Example 2e, 7-[3-(4-phenylacetamidopiperidino)-propyl]-theophylline] | 68 |  | 
Cn1c(=O)c2c(ncn2CCCN2CCC(NC(=O)c3ccccc3O)CC2)n(C)c1=O [Example 4a, 7-{3-[4-(2-hydroxybenzamido)-piperidino]-propyl}-theophylline] |  | 82 | 
Cn1c(=O)c2c(ncn2CCCN2CCC(NC(=O)c3cccs3)CC2)n(C)c1=O [Example 4d, 7-{3-[4-(thiophene-2-carboxamido)-piperidino]-propyl}-theophylline] |  | 38 | 
CC(=O)NC1CCN(CCCn2cnc3c2c(=O)n(C)c(=O)n3C)CC1 [Example 2c, 7-[3-(4-acetamidopiperidino)-propyl]-theophylline] | 37 |  | 
Cc1ccccc1C(=O)NC1CCN(CCCn2cnc3c2c(=O)n(C)c(=O)n3C)CC1 [Example 2d, 7-{3-[4-(2-methylbenzamido)-piperidino]-propyl}-theophylline] |  | 60 | 
Cn1c(=O)c2[nH]cnc2n(C)c1=O [Aminophylline, reference compound] |  |  | % inhibition Br Sp (antigen induced bronchospasm) (24 mg/kg i.v.): 29%
